Data reported in ChEMBL document CHEMBL1133555 (J Med Chem, 2000).

Key:
[1] = target: Sodium-dependent serotonin transporter (Rattus norvegicus, UniProt P31652); experiment: Binding affinity for serotonin transporter labeled with [125 I]RTI-55
[2] = target: Norepinephrine transporter (Rattus norvegicus, UniProt Q9WTR4); experiment: Binding affinity for norepinephrine transporter (NET) labeled with [3H]nisoxetine
[3] = target: Sodium-dependent dopamine transporter (Rattus norvegicus, UniProt P23977); experiment: Binding affinity for dopamine transporter (DAT) labeled with [125 I]RTI-55
Chain of Sodium-dependent dopamine transporter (P23977 whole entry): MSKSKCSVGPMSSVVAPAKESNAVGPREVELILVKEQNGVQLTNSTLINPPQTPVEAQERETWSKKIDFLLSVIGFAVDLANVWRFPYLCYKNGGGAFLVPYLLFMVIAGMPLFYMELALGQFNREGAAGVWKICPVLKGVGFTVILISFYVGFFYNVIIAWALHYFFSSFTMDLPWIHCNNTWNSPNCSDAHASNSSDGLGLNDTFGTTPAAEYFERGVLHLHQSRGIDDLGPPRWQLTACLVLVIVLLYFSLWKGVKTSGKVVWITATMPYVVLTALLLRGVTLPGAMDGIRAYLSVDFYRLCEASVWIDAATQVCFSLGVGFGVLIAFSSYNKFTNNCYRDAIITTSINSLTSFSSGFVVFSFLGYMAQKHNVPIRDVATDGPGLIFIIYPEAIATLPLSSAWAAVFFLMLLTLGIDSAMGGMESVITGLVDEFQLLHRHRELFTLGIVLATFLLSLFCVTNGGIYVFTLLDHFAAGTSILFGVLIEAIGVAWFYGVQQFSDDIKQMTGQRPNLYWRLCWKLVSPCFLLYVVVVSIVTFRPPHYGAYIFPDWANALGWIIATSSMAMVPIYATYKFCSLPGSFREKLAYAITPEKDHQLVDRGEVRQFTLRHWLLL

Chain of Norepinephrine transporter (Q9WTR4 whole entry): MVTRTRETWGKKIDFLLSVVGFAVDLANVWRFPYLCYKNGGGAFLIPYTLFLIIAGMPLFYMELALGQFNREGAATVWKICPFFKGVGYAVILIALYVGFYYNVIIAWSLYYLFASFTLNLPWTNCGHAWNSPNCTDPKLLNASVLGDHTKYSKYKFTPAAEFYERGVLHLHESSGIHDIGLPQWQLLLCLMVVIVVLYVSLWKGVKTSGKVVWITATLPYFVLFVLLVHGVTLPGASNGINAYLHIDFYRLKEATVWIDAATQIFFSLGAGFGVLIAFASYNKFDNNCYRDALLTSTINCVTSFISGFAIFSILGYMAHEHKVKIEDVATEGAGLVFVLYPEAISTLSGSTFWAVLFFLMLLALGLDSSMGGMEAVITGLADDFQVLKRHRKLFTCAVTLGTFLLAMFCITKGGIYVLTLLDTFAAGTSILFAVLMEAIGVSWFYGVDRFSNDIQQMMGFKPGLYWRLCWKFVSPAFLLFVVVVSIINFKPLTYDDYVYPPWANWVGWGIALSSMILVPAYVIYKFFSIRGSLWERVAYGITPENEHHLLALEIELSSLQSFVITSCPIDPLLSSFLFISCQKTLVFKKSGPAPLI
Chain of Sodium-dependent serotonin transporter (P31652 whole entry): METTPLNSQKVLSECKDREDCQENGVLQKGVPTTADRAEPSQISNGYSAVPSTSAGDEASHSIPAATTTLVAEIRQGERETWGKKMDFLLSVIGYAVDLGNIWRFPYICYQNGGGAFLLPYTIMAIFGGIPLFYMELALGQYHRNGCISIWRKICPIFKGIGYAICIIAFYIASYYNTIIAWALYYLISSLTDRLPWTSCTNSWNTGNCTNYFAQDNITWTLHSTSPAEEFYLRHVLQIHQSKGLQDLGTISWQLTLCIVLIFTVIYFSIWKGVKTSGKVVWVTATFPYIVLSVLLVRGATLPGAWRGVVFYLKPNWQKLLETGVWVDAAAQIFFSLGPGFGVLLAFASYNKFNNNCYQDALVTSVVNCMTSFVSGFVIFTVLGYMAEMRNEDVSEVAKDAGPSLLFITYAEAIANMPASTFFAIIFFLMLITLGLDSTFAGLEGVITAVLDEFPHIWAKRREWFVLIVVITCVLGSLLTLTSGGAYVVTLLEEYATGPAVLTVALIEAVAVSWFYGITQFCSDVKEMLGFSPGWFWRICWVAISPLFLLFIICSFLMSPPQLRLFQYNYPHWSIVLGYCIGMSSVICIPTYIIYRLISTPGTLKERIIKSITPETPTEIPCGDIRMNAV

Row | SMILES | Ki [1] | Ki [2] | Ki [3]
1 | CN[C@@H]1CC(c2ccc(Cl)c(Cl)c2)c2cccc(OC)c21 (stereo partly specified) | 0.108 µM | 0.093 µM | 0.032 µM
2 | CN[C@@H]1CC(c2ccc(Cl)c(Cl)c2)c2cc(OC)c(OC)cc21 (stereo partly specified) | 0.061 µM | 0.102 µM | 0.0036 µM
3 | CN[C@@H]1CC(c2ccc(Cl)c(Cl)c2)c2c(OC)cccc21 (stereo partly specified) | 0.063 µM | 0.027 µM | 0.0017 µM
4 | CN[C@@H]1CC(c2ccc(Cl)c(Cl)c2)c2cc(OC)ccc21 (stereo partly specified) | 0.0065 µM | 0.0765 µM | 0.0094 µM
5 | CN[C@@H]1CC(c2ccc(Cl)c(Cl)c2)c2ccc(OC)cc21 (stereo partly specified) | 0.0011 µM | 0.015 µM | 0.0116 µM
6 | CN[C@@H]1CC(c2ccc(Cl)c(Cl)c2OC)c2ccc(OC)cc21 (stereo partly specified) | 0.0056 µM | 0.122 µM | 0.788 µM
7 | CN[C@H]1c2cc(OC)ccc2C(c2ccc(Cl)c(Cl)c2)[C@@H]1O (stereo partly specified) | 0.0081 µM | 1.69 µM | 1.13 µM
